Source: patent US20240398805A1, “QUINAZOLINE DERIVED COMPOUNDS AS EGFR INHIBITORS AND THEIR USES THEREOF” (ACCUTAR BIOTECHNOLOGY INC., priority 2021, published 2024)

Columns and labels:
Type in all cases: cell-based
HCC827 cells = assay: Cell growth inhibition (CellTiter-Glo, 3 days) in HCC827; details: Homo sapiens, 72 h, 3 days after administration
Method in brief: (§1)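 HCC827 cells in RPMI/10% FBS and A431 cells in DMEM/10% FBS were seeded at 5000 cells/well and left overnight. Compound was then added over a concentration range for 3 days of incubation, and viability was read by CellTiter-Glo luminescence.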

[1] = test system: HCC827-SVD cells (human EGFR exon 20 insertion mutant D770_N771 insSVD); assay: Cell growth inhibition (CellTiter-Glo, 3 days) in HCC827-SVD; details: 72 h, 3 days after administration
Method in brief: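 HCC827 cells carrying lentiviral codon-optimized EGFR D770_N771 insSVD, with endogenous EGFR knocked out by CRISPR (single clone), seeded at 5000 cells/well in RPMI with 10% FBS. Viability read by CellTiter-Glo luminescence.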

[2] = test system: HCC827-ASV cells (human EGFR exon 20 insertion mutant A769_D770insASV); assay: Cell growth inhibition (CellTiter-Glo, 3 days) in HCC827-ASV; details: 72 h, 3 days after administration
Method in brief: (§2)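 HCC827 cells lentivirally transduced with codon-optimized ASV or YVMA insertion mutants were seeded at 5000 cells/well in RPMI with 10% FBS and incubated overnight. Compound was added at various concentrations from a 10× stock in medium, with 3 days' incubation. Viability read by CellTiter-Glo luminescence.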

[3] = test system: HCC827-YVMA cells (human ERBB2 exon20 insertion mutant A775_G776ins YVMA); assay: Cell growth inhibition (CellTiter-Glo, 3 days) in HCC827-YVMA; details: 72 h, 3 days after administration
Method in brief: as §2

A431 cells = assay: Cell growth inhibition (CellTiter-Glo, 3 days) in A431; details: Homo sapiens, A-431, 72 h, 3 days after administration
Method in brief: as §1

SMILES	GI50 (HCC827 cells)	GI50 [1]	GI50 [2]	GI50 [3]	GI50 (A431 cells)
C=CC(=O)N1CCC(Nc2cc3c(Nc4ccc(Oc5nc(-c6cnc(C)nc6)cs5)cc4F)ncnc3cc2OC)CC1 [Example 32, 1-(4-((4-((2-fluoro-4-((4-(2-methylpyrimidin-5-yl)thiazol-2-yl)oxy)phenyl)amino)-7-methoxyquinazolin-6-yl)amino)piperidin-1-yl)prop-2-en-1-one]	60 to 100 nM	< 30 nM	< 30 nM	< 30 nM	100 to 300 nM
C=CC(=O)N1CC2(CC(Oc3cc4c(Nc5ccc(Oc6ccn(-c7cnc(OC)nc7)n6)cc5F)ncnc4cc3OC)C2)C1 [Compound 79, 1-(6-((4-((2-fluoro-4-((1-(2-methoxypyrimidin-5-yl)-1H-pyrazol-3-yl)oxy)phenyl)amino)-7-methoxyquinazolin-6-yl)oxy)-2-azaspiro [3.3]heptan-2-yl) prop-2-en-1-one]	≥ 1000 nM	≥ 1000 nM	≥ 1000 nM	≥ 1000 nM	≥ 1000 nM
C=CC(=O)N1CCC(Nc2cc3c(Nc4ccc(Oc5ccnc(N6CCCOCC6)c5)cc4F)ncnc3cc2OC)CC1 [Example 106, 1-(4-((4-((4-((2-(1,4-oxazepan-4-yl)pyridin-4-yl)oxy)-2-fluorophenyl)amino)-7-methoxyquinazolin-6-yl)amino)piperidin-1-yl)prop-2-en-1-one]	100 to 300 nM	< 30 nM	< 30 nM	< 30 nM	≥ 1000 nM
C=CC(=O)N1CCC(Nc2cc3c(Nc4ccc(Oc5ccnc(C(=O)NC(C)(C)C)c5)cc4F)ncnc3cc2OC)CC1 [Compound 167, 4-(4-((6-((1-acryloylpiperidin-4-yl)amino)-7-methoxyquinazolin-4-yl)amino)-3-fluorophenoxy)-N-(tert-butyl)picolinamide]	< 30 nM	60 to 100 nM	30 to 60 nM	60 to 100 nM	600 to 1000 nM
C=CC(=O)N1CCC(Nc2cc3c(Nc4ccc(Oc5ccn(-c6cnc(C)c(OC)c6)n5)cc4F)ncnc3cc2OC)CC1 [Example 38, 1-(4-((4-((2-fluoro-4-((1-(5-methoxy-6-methylpyridin-3-yl)-1H-pyrazol-3-yl)oxy)phenyl)amino)-7-methoxyquinazolin-6-yl)amino)piperidin-1-yl)prop-2-en-1-one]	100 to 300 nM	30 to 60 nM	30 to 60 nM	30 to 60 nM	30 to 60 nM
C=CC(=O)N1CCC(Nc2cc3c(Nc4ccc(Oc5ccnc(N6CC7(CC(O)C7)C6)c5)cc4F)ncnc3cc2OC)CC1 [Example 175, 1-(4-((4-((2-fluoro-4-((2-(6-hydroxy-2-azaspiro[3.3]heptan-2-yl)pyridin-4-yl)oxy)phenyl)amino)-7-methoxyquinazolin-6-yl)amino)piperidin-1-yl)prop-2-en-1-one]	600 to 1000 nM	30 to 60 nM	30 to 60 nM	30 to 60 nM	≥ 1000 nM
C=CC(=O)N1CCC(Nc2cc3c(Nc4ccc(Oc5ccnc(N6CCO[C@@H](CO)C6)c5)cc4F)ncnc3cc2OC)CC1 [Example 124, (R)-1-(4-((4-((2-fluoro-4-((2-(2-(hydroxymethyl)morpholino)pyridin-4-yl)oxy)phenyl)amino)-7-methoxyquinazolin-6-yl)amino)piperidin-1-yl)prop-2-en-1-one]	600 to 1000 nM	30 to 60 nM	30 to 60 nM	60 to 100 nM	≥ 1000 nM
C=CC(=O)N1CCC(Nc2cc3c(Nc4ccc(Oc5ccnc(N6CCC(O)CC6)c5)cc4F)ncnc3cc2OC)CC1 [Example 121, 1-(4-((4-((2-fluoro-4-((2-(4-hydroxypiperidin-1-yl)pyridin-4-yl)oxy)phenyl)amino)-7-methoxyquinazolin-6-yl)amino)piperidin-1-yl)prop-2-en-1-one]	300 to 600 nM	< 30 nM	< 30 nM	< 30 nM	≥ 1000 nM
C=CC(=O)N1CCC(Nc2cc3c(Nc4ccc(OCc5ccccn5)c(Cl)c4)ncnc3cc2OCCN(C)C)CC1 [Example 96, 1-(4-((4-((3-chloro-4-(pyridin-2-ylmethoxy)phenyl)amino)-7-(2-(dimethylamino)ethoxy)quinazolin-6-yl)amino)piperidin-1-yl)prop-2-en-1-one]	60 to 100 nM	100 to 300 nM	100 to 300 nM	100 to 300 nM	300 to 600 nM
C=CC(=O)N1CCC(Nc2cc3c(Nc4ccc(Oc5ccnc(N6CCC(N(C)C)CC6)c5)cc4F)ncnc3cc2OC)CC1 [Example 122, 1-(4-((4-((4-((2-(4-(dimethylamino)piperidin-1-yl)pyridin-4-yl)oxy)-2-fluorophenyl)amino)-7-methoxyquinazolin-6-yl)amino)piperidin-1-yl)prop-2-en-1-one]	600 to 1000 nM	600 to 1000 nM	600 to 1000 nM	≥ 1000 nM	≥ 1000 nM
C=CC(=O)N1CCC(Nc2cc3c(Nc4ccc(Oc5ccnc(N6CCN(C)[C@H](C)C6)c5)cc4F)ncnc3cc2OC)CC1 [Example 180, (R)-1-(4-((4-((4-((2-(3,4-dimethylpiperazin-1-yl)pyridin-4-yl)oxy)-2-fluorophenyl)amino)-7-methoxyquinazolin-6-yl)amino)piperidin-1-yl)prop-2-en-1-one]	≥ 1000 nM	30 to 60 nM	30 to 60 nM	30 to 60 nM	≥ 1000 nM
C=CC(=O)N1CCC(Nc2cc3c(Nc4ccc(Oc5ccn(-c6ccc(OC)nc6)n5)cc4F)ncnc3cc2OC)CC1 [Compound 12, 1-(4-((4-((2-fluoro-4-((1-(6-methoxypyridin-3-yl)-1H-pyrazol-3-yl)oxy)phenyl)amino)-7-methoxyquinazolin-6-yl)amino)piperidin-1-yl)prop-2-en-1-one]	30 to 60 nM	< 30 nM	< 30 nM	< 30 nM	100 to 300 nM
C=CC(=O)N1CCC(Nc2cc3c(Nc4ccc(Oc5ccnc(N6CCC(N)CC6)c5)cc4F)ncnc3cc2OC)CC1 [Example 178, 1-(4-((4-((4-((2-(4-aminopiperidin-1-yl)pyridin-4-yl)oxy)-2-fluorophenyl)amino)-7-methoxyquinazolin-6-yl)amino)piperidin-1-yl)prop-2-en-1-one]	≥ 1000 nM	300 to 600 nM	300 to 600 nM	300 to 600 nM	≥ 1000 nM

The remaining lines, values ahead:

GI50 (HCC827 cells)	GI50 [1]	GI50 [2]	GI50 [3]	GI50 (A431 cells)	SMILES
60 to 100 nM	< 30 nM	< 30 nM	< 30 nM	300 to 600 nM	C=CC(=O)N1CCC(Nc2cc3c(Nc4ccc(Oc5ccnc(N6CC[C@@H](C)C6)c5)cc4F)ncnc3cc2OC)CC1 [Example 197, (R)-1-(4-((4-((2-fluoro-4-((2-(3-methylpyrrolidin-1-yl)pyridin-4-yl)oxy)phenyl)amino)-7-methoxyquinazolin-6-yl)amino)piperidin-1-yl)prop-2-en-1-one]
60 to 100 nM	< 30 nM	< 30 nM	< 30 nM	600 to 1000 nM	C=CC(=O)N1CCC(Nc2cc3c(Nc4ccc(Oc5ccnc(N6CCC[C@H](C)C6)c5)cc4F)ncnc3cc2OC)CC1 [Example 222, (S)-1-(4-((4-((2-fluoro-4-((2-(3-methylpiperidin-1-yl)pyridin-4-yl)oxy)phenyl)amino)-7-methoxyquinazolin-6-yl)amino)piperidin-1-yl)prop-2-en-1-one]
≥ 1000 nM	≥ 1000 nM	≥ 1000 nM	600 to 1000 nM	≥ 1000 nM	C=CC(=O)N1CCC(Nc2cc3c(Nc4ccc(Oc5ccnc(C(=O)OC)c5)cc4F)ncnc3cc2OC)CC1 [Example 211, methyl 4-(4-((6-((1-acryloylpiperidin-4-yl)amino)-7-methoxyquinazolin-4-yl)amino)-3-fluorophenoxy) picolinate]
100 to 300 nM	< 30 nM	< 30 nM	< 30 nM	60 to 100 nM	C=CC(=O)N1CCC(Nc2cc3c(Nc4ccc(Oc5ccnc(N6CC7CC7C6)c5)cc4F)ncnc3cc2OC)CC1 (centres unmarked) [Example 199, 1-(4-((4-((4-((2-(3-azabicyclo[3.1.0]hexan-3-yl)pyridin-4-yl)oxy)-2-fluorophenyl)amino)-7-methoxyquinazolin-6-yl)amino)piperidin-1-yl)prop-2-en-1-one]
≥ 1000 nM	≥ 1000 nM	≥ 1000 nM	≥ 1000 nM	≥ 1000 nM	C=CC(=O)N1CCC(Nc2cc3c(Nc4ccc(Oc5ccnc(NC6CCN(C)CC6)c5)cc4F)ncnc3cc2OC)CC1 [Example 184, 1-(4-((4-((2-fluoro-4-((2-((1-methylpiperidin-4-yl)amino)pyridin-4-yl)oxy)phenyl)amino)-7-methoxyquinazolin-6-yl)amino)piperidin-1-yl)prop-2-en-1-one]
100 to 300 nM	< 30 nM	< 30 nM	< 30 nM	≥ 1000 nM	C=CC(=O)N1CCC(Nc2cc3c(Nc4ccc(Oc5ccnc(N6CC[C@H](CO)C6)c5)cc4F)ncnc3cc2OC)CC1 [Example 250, (S)-1-(4-((4-((2-fluoro-4-((2-(3-(hydroxymethyl)pyrrolidin-1-yl)pyridin-4-yl)oxy)phenyl)amino)-7-methoxyquinazolin-6-yl)amino)piperidin-1-yl)prop-2-en-1-one]
